Results on 1 compound are retold here after patent US20080317702A1, “METHOD FOR TREATING MICROORGANISMS AND/OR INFECTIOUS AGENTS” (priority 2007, published 2008).

SMILES strings stand for the structures. Values joined by “and” are separate entries in the source; they are usually repeats but may differ in a detail not shown here. Equal entries are not always repeated.

For the data set, the system named is HeLa cells. Nature of the data set: Toxicity to HeLa cells in culture, MTT (Example 23). It is filed as cell-based, human. The note with it: 48 hours of culture. The protocol: The toxicity of Example 1 is compared to Chlorohexidine gluconate (a commonly used oral antiseptic) to human HeLa cells in culture is determined. HeLa cells are plated at subconfluency into a 96-well plate tissue culture plate, and after attachment, treated with the indicated final concentrations of Example 1 polymer or Chlorohexidine gluconate in triplicates. After 48 hours of culture, MTT reagent is added for two 2 hours to permit the development of viability-indicating color. 1 μM PAO (phenylarsine oxide) is used as a positive (effective killing) control. […] Furthermore, the minimum inhibitory concentration of Example 1 polymer is found to be about 10^−3% while that for the chlorohexidine gluconate is 6×10^−5%. This means that the Example 1 polymer is about […] less toxic to HeLa cells in culture than chlorohexidine gluconate.

On to `N=C(NCCCCCCNC(=N)NC(=N)Nc1ccc(Cl)cc1)NC(=N)Nc1ccc(Cl)cc1.O=C(O)[C@H](O)[C@@H](O)[C@H](O)[C@H](O)CO.O=C(O)[C@H](O)[C@@H](O)[C@H](O)[C@H](O)CO` [chlorohexidine gluconate], for which the “Lethal dose 50 (LD50) for HeLa cells” value was ~0.0004% and > 1.2×10^−4%.
